Common to all, as to test: NCI anticancer screen, dose series, 48 h
Test [1] has as its system ACHN renal.
Test [2] deals with K-562 leukemia.
For test [3], the system named is NCI-H23 lung.
Test [4] relates to OVCAR-3 ovarian.
Test [5] concerns SK-OV-3 ovarian.
In test [6] the test system is SNB-75 CNS.
Test [7] has as its system SR leukemia.
The subject of test [8] is TK-10 renal.
Test [9] relates to UO-31 renal.
For test [10], the system named is MDA-MB-435.

TGI and GI50 data for 25 compounds are collected here from PubChem BioAssay (NCI).

Several values for one entry are separate records, joined by “and”; a condition that tells them apart may be missing. Identical values can stand only once.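 All cell lines were grown in 96-well plates and treated with compound for 48 hours. Abbreviation: GI50, concentration required for 50% inhibition of growth. TGI is the concentration that stops growth completely.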

With `COc1c2c(cc3nc4ccccc4nc13)CCC(C(C)(C)O)C2` (stereo not drawn), the TGI in test [1], in test [2], in [3], in test [4], in test [5] and in [6] was above 100 µM in each case. Further, the TGI in test [7], in [8] and in test [9] was above 100 µM throughout.
With `COc1cc(OC(=O)c2c(O)cc(O)c(O)c2C)cc(C)c1C(=O)Oc1cc(C)c(C(=O)O)c(O)c1`, the TGI in [1], in test [2], in [3], in test [4], in test [5] and in [6] was above 100 µM each time. The TGI in test [7], in [8] and in [9] was above 100 µM each time.
Consider `NC(=S)N/N=C/c1ccc(OC(=O)COc2ccc(Cl)cc2)cn1`, for which the GI50 is 3390 nM in test [1]; 1360 nM in test [2]; 5.89 µM in test [10]; 3670 nM in test [3]; 40 µM in test [5]; 498 nM in test [7]. In addition, the GI50 is 30 µM in test [8] and 3.24 µM in [9]. Besides, the TGI in test [1], in test [2], in test [10], in [3], in [5] and in test [6] was above 100 µM throughout. In addition, the values for the TGI in test [7], in [8] and in test [9] were above 100 µM, above 100 µM and 21.5 µM, respectively.
Take `CCS(=O)(=O)c1ccc(OC)c(Nc2ncc(-c3cccc(OC)c3)o2)c1`: the GI50 in test [1] was 6610 nM; in [2], 4340 nM; in [10] it was 18.2 µM; in test [3] it was 8300 nM; in test [4] it was 9920 nM; in test [5], 9.92 µM. Also, the GI50 in test [6] is 6260 nM; in test [7] it was 9330 nM; in [8], 6.5 µM; in [9], 3.4 µM. Besides, the TGI in test [1], in [2], in [10], in [3], in test [4] and in test [5] was above 25 µM in each case. For the same compound, the TGI in test [6] was above 18.2 µM; in test [7], 24.3 µM; in test [8], 18.6 µM; in test [9] it was 13.8 µM.
`Nc1ccc(/C=C/c2ccnc3ccccc23)cc1`: the TGI in [1] was above 100 µM; in [2] it was 44 µM; in [3] it was 50.1 µM; in [4], 48.7 µM; in [6], 41.8 µM; in [7], 32.4 µM. Further, the TGI in test [8] turned out to be 57.7 µM; in test [9], 47.5 µM.
In the case of `NC(CC(=O)OCc1ccccc1)C(=O)OCc1ccccc1` (stereo not drawn), the TGI in test [1], in test [10], in test [3], in test [4], in test [7] and in [8] was above 100 µM each time. The TGI in test [9] is above 100 µM.
For the compound `CC12CCCC(O)C1CCC1=CC3(CCC12)SCCS3` (stereo not drawn), the TGI in [1], in test [2], in test [10], in test [3], in test [4] and in test [5] was above 10 µM each time. The TGI in test [6], in test [7] and in test [8] was above 10 µM each time.
For the compound `COC(=O)c1cc(Br)c(Br)n1C`, the TGI in test [1], in [2], in [3], in test [4], in test [5] and in test [6] was above 100 µM throughout. Further, the TGI in [7], in test [8] and in test [9] was above 100 µM in each case.
With `N.N.N.N.N.O=C([O-])c1nn[n-]n1.[Cl-].[Co+3]`, the GI50 in [1] is above 100000 nM; in [2] it was above 100000 nM; in test [3], above 100000 nM; in test [4], above 100000 nM; in [5], above 100 µM; in test [6] it was above 100000 nM. The values for the GI50 in test [7], in test [8] and in test [9] were above 100000 nM, above 100 µM and above 100 µM, respectively. For the same compound, the TGI in [1], in test [2], in test [3], in test [4], in test [5] and in [6] was above 100 µM in each case. In addition, the TGI in [7], in [8] and in test [9] was above 100 µM throughout.
`CC1=C(C)CC2(CCCCC2=O)S(=O)C1` (stereo not drawn): the TGI in test [1], in test [2], in test [3], in test [4], in test [5] and in test [6] was above 100 µM each time. Further, the TGI in test [7], in test [8] and in [9] was above 100 µM throughout.
For the compound `Cc1ccc2nc3c(C(=O)NCCN(C)C)cccc3nc2c1`, the TGI was 14.9 µM in test [1]; 9.27 µM in test [2]; 17.1 µM in test [3]; 32.4 µM in [4]; above 56.3 µM in test [5]; 42.9 µM in test [6]. The TGI in test [7] is above 100 µM; in test [8], above 66 µM; in test [9], above 54.8 µM.
Consider `Cc1ccc(S(=O)(=O)n2c(-c3ccccc3)c(-c3ccccc3)c3ccccc32)cc1`, for which the TGI in [1], in [2], in test [3], in [4], in test [5] and in test [6] was above 100 µM throughout. Besides, the TGI in [7], in test [8] and in test [9] was above 100 µM in each case.
Turning to `CC1=C2C(=O)O[C@@H](c3ccoc3)[C@]2(C)CCC1`, the TGI in [1], in test [2], in [3], in test [4], in test [5] and in [6] was above 100 µM in each case. Further, the TGI in test [7], in test [8] and in test [9] was above 100 µM throughout.
Regarding `NC1=NN(c2ccccc2)C(=O)C1C(=O)CCC(=O)Nc1cccc(C(F)(F)F)c1` (stereo not drawn), the TGI in test [1], in test [2], in test [3], in test [4], in test [5] and in [7] was above 100 µM in each case. Besides, the TGI in test [8] and in [9] was above 100 µM throughout.
Take `Cc1cccc(NC(=O)C(=O)Cc2nc3ccccc3[nH]c2=O)c1C`: the TGI in [1], in test [2], in test [3], in test [4], in test [5] and in [6] was above 100 µM throughout. Also, the TGI in [7], in test [8] and in test [9] was above 100 µM in each case.
On to `CCOC(=O)c1cc(/C(=N\O)c2cc(OC)c(OC)c(OC)c2)n2cc(C)cc(C)c12`, for which the GI50 in test [1] was 3000 nM; in test [10], 0.565 µM; in test [3] it was 2810 nM; in test [4] it was 1740 nM; in [5], 1.89 µM; in [6], 1480 nM. Further, the GI50 is 560 nM in [7] and 3.66 µM in test [8]. The TGI is above 100 µM in test [1]; 4.16 µM in test [10]; above 100 µM in [3]; 4.33 µM in test [4]; 4.8 µM in test [5]; 4.48 µM in test [6]. Further, the TGI was determined as 4.57 µM in test [7] and 51.3 µM in test [8].
For `Cn1cc(C(=O)c2ccccc2)ccc1=O`, the TGI in test [1], in [2], in test [3], in [4], in test [5] and in test [6] was above 100 µM in each case. For the same compound, the TGI in test [7], in [8] and in test [9] was above 100 µM in each case.
As to `CCOC(=O)NC(=O)c1cn(CCOCCOC(=O)NCCCCCCNC(=O)OCCOCCn2cc(C(=O)NC(=O)OCC)c(=O)[nH]c2=O)c(=O)[nH]c1=O`, the TGI in [1], in test [2], in [3], in test [4], in [5] and in test [6] was above 100 µM in each case. The TGI in test [7], in test [8] and in [9] was above 100 µM each time.
For the compound `CCCCCCCCCCCCCC1CCC(CC)N1` (stereo not drawn), the TGI is 17.4 µM in [1]; 33.3 µM in test [2]; 32.9 µM in test [3]; 30.2 µM in test [4]; 30.7 µM in [5]; 17.7 µM in test [6]. The TGI in test [7] is 40.6 µM; in test [8] it was 32 µM; in test [9], 27.4 µM.
As for `Cc1cc(C)nc(NS(=O)(=O)c2ccc(Nc3c4ccccc4nc4c(C(=O)Nc5ccc(S(=O)(=O)Nc6cc(C)on6)cc5)cccc34)cc2)n1`, the TGI in test [1] is above 100 µM; in test [2], 80.1 µM; in test [3], 51.1 µM; in [4], 33.3 µM; in test [5] it was 61.7 µM; in test [6], 69 µM. Further, the TGI in [7] worked out at 81.6 µM; in [8], 96 µM; in test [9] it was 63.2 µM.
For the compound `Cc1ccccc1N(CCC#N)C1=NN(C(=O)CC(=O)Nc2ccccc2)C(c2ccccc2)C1` (stereo not drawn), the TGI in [1] is above 100 µM; in test [2], above 100 µM; in [3] it was above 100 µM; in [4], above 100 µM; in test [5], above 100 µM; in test [6], 96.7 µM. For the same compound, the TGI in [7] and in [9] was above 100 µM throughout.
On to `COC(=O)C1=NC(=S)NC(c2ccccc2)C1c1nc2ccccc2s1` (stereo not drawn), for which the TGI in test [1], in test [3], in [4], in [5], in test [6] and in [7] was above 100 µM throughout. The TGI in test [8] and in test [9] was above 100 µM in each case.
Take `COc1ccc2c(c1)CCC1C3(CCCC21C)OCCO3` (stereo not drawn): the TGI was 78.9 µM in [1]; 42.1 µM in [2]; 34.2 µM in test [3]; 35.5 µM in test [4]; 60.9 µM in test [5]; 60.3 µM in test [6]. The TGI in test [7] was 45.4 µM; in [8], above 100 µM; in test [9] it was 31 µM.
On to `CC(=O)OC[C@]12CC[C@H]3[C@@H](C[C@H]4O[C@]45[C@@H](O)C=CC(=O)[C@]35C)[C@@H]1CC[C@@H]2[C@H](C)[C@H]1CC(C)=C(C)C(=O)O1`, for which the GI50 is 498 nM and 515 nM in test [1]; 272 nM and 201 nM in test [2]; 185 nM and 324 nM in test [3]; 314 nM and 176 nM in [4]; 2.78 µM in [5]; 261 nM and 264 nM in test [6]. In addition, the GI50 in test [7] is 189 nM and 187 nM; in [8] it was 0.548 µM and 0.68 µM; in test [9], 0.84 µM and 0.776 µM. Also, the TGI was 0.792 µM and 1.16 µM in [1]; 0.849 µM and 0.979 µM in [2]; 0.371 µM and 0.858 µM in test [3]; 0.842 µM and 0.548 µM in test [4]; 5.98 µM in test [5]; 0.953 µM and 1.25 µM in test [6]. Also, the TGI in [7] is 0.617 µM and 0.631 µM; in test [8], 1.82 µM; in [9], 2 µM.
Turning to `COc1cc2oc(-c3ccc(O)cc3)cc(=O)c2c(OC)c1OC`, the TGI in [1], in [2], in [10], in [3], in test [4] and in [6] was above 100 µM each time. For the same compound, the TGI in test [7], in test [8] and in [9] was above 100 µM in each case.
